Experimental data from patent US20230219951A1, “PYRIDINE-PYRIMIDINE DERIVATIVE, PREPARATION METHOD THEREFOR AND PHARMACEUTICAL USE THEREOF” (Jiangsu Hengrui Pharmaceuticals Co., Ltd., priority 2020, published 2023).

Assays:
CYP2C19 = molecular target: T1, CYP2C19 (Homo sapiens, UniProt P33261); experiment: Human liver microsome CYP450 inhibition, CYP2C19 (S)-mephenytoin 4'-hydroxylation; assay type: in vitro ADME; conditions: human liver microsomes, (S)-mephenytoin probe substrate
T1 construct: tissue Corning Gentest 452161; host or cells: human liver microsomes
Experimental: (§1) The inhibition effect of the compounds of the present disclosure on the human liver microsome CYP450 enzyme was determined by the following method:
(§2) An appropriate amount of human liver microsome stock solution (20 mg/mL) was diluted to obtain a 0.25 mg/mL microsome solution with 7.5 mM MgC12 solution for later use (prepared right before use).
(§3) b. An appropriate amount of the stock solution was precisely pipetted, and diluted into series solution I at the concentrations of 10 mM, 3 mM, 1 mM, 0.3 mM, 0.03 mM and 0.003 mM with an appropriate amount of DMSO solution. An appropriate amount of the above series solution I was precisely pipetted, and diluted to obtain series solution II at the concentrations of 3 mM, 1 mM, 0.3 mM, 0.1 mM, 0.03 mM, 0.003 mM and 0.0003 mM with an appropriate amount of acetonitrile. An appropriate amount of the above series solution II was precisely pipetted, and diluted with PBS to obtain a working solution at the concentrations of 150 μM, 50 μM, 15 μM, 5μM, 1.5 μM, 0.15 μM and 0.015 μM for later use.
a. […]
(§4) The values were calculated by Graphpad Prism to obtain the IC50 values for the inhibition of drugs on CYP2C19 (S)-mephenytoin 4′-hydroxylation and CYP3A4M midazolam 1-hydroxylation metabolism in human liver microsomes, as shown in Table 6.

CYP3A4M = molecular target: T2, CYP3A4M (Homo sapiens, UniProt P08684); experiment: Human liver microsome CYP450 inhibition, CYP3A4M midazolam 1-hydroxylation; assay type: in vitro ADME; conditions: human liver microsomes, midazolam probe substrate
T2 construct: tissue Corning Gentest 452161; host or cells: human liver microsomes
Experimental: as §1, §2, §3
a. […]
as §4

[1] = Pharmacokinetic evaluation in dogs; assay type: in vivo; conditions: both sexes, dog, plasma, po, beagle dogs, intragastric administration, 2 mg/kg
Experimental: The drug concentration in the plasma of the test animals (dogs) at different time points after intragastric administration (i.g.) of compound 18-p1 was determined by using an LC/MS/MS method. The pharmacokinetic behavior in dogs of the compound of the present disclosure was studied and its pharmacokinetic profile was evaluated.
Four beagle dogs, half male and half female, fasted overnight, supplied by animal reserve bank (999M-004). All animals were beagle dogs qualified for physical examination and healthy without abnormalities.
An amount of compound 18-p1 was weighed and dissolved in 5% by volume of DMSO, 20% by volume of PG, and 20% by volume of PEG400, and then prepared into a 0.4 mg/mL clear solution with 55% normal saline.
The administration was performed at a dose of 2.0 mg/kg and a volume of 5.0 mL/kg.
The compound 18-p1 was administered intragastrically to dogs, and 1.0 mL of blood was collected from jugular vein or forelimb vein before administration and 0.25 h, 0.5 h, 1.0 h, 2.0 h, 4.0 h, 6.0 h, 8.0 h, 12.0 h and 24.0 h after administration. The blood was placed in an EDTA-K2 anticoagulation tube and centrifuged at 10,000 rpm for 5 min (4° C.), and plasma was separated out within 1 h and then stored at −80° C. for testing. The process from blood sampling to centrifugation was performed under an ice bath. Food intake was resumed 3 h after administration.
The content of the test compounds at different concentrations in plasma of dogs after administration was determined: 25 μL of plasma of dogs at each time point after administration was taken, and 200 μL of acetonitrile (containing 50 μL of internal standard solution camptothecin, 100 ng/mL) was added; the mixture was vortexed for 5 min, and centrifuged for 10 min (4000 r/min). 0.3 μL of supernatant was taken from the plasma sample for LC/MS/MS analysis.

T1 sequence (P33261 whole entry): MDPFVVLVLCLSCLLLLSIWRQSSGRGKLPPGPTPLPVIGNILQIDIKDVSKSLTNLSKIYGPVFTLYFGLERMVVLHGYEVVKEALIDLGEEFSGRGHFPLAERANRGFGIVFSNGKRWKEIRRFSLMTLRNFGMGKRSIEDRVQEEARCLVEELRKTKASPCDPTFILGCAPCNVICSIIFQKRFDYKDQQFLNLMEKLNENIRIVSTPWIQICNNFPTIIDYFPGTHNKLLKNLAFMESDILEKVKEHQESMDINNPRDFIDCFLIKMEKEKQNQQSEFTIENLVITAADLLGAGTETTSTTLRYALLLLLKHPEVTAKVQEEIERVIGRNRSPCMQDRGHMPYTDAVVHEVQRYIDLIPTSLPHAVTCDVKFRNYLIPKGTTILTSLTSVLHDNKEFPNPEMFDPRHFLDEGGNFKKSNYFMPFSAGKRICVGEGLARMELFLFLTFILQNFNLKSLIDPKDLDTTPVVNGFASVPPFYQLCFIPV
T2 sequence (P08684 whole entry): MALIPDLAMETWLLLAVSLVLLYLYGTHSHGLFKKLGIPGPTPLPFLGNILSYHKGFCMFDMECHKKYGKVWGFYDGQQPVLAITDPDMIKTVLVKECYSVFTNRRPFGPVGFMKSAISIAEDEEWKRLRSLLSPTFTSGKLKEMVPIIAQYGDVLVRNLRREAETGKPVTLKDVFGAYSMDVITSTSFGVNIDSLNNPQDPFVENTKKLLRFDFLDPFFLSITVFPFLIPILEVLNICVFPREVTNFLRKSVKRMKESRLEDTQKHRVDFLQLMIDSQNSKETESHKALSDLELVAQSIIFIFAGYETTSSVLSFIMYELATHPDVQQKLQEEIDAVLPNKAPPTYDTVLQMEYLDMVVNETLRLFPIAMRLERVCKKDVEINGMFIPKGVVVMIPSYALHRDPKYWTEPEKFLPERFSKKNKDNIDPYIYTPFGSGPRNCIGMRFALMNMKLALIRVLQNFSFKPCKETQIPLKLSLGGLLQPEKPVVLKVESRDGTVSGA

IC50 (CYP2C19): > 30 µM
IC50 (CYP3A4M): > 30 µM
Vd/F ([1]; read-out: Apparent distribution volume Vz/F): 2.63 L/kg
AUC(0-t) ([1]; read-out: Area under curve AUC0-t): 4600 ng·h/mL
CL/F ([1]; read-out: Clearance CLz/F): 7.64 mL/min/kg
half-life ([1]; read-out: Half-life T½ (converted)): 3.91 h
Cmax ([1]; read-out: Plasma concentration Cmax): 710 ng/mL
Structure (SMILES): Cc1nc(N[C@H](C)c2cccc(C(F)F)c2F)c2cc([C@]3(O)CC[C@@H](O)CC3)c(=O)[nH]c2n1 [Example 18-p1, 4-(((R)-1-(3-(difluoromethyl)-2-fluorophenyl)ethyl)amino)-6-((1s,4S)-1,4-dihydroxycyclohexyl)-2-methylpyrido[2,3-d]pyrimidin-7(8H)-one]
